Test results: publication PMC7126094 (Bioorganic & Medicinal Chemistry Letters, 2019)
“Also recorded” adds a separate entry of the source. Like-named read-outs stand apart in the source and are kept apart here.

What was measured:
[1] = tested on: MERS-CoV
[2] = human, microsomes
[3] = target: hERG (Homo sapiens, UniProt Q12809); assay: hERG binding assay
[4] = tested on: CHO-K1: Chinese hamster ovary cell line
[5] = tested on: HFL-1: human embryonic lung cell line
[6] = tested on: L929: mouse fibroblast cell line
[7] = in vitro; conditions: African green monkey
[8] = rat, microsomes
[9] = tested on: NIH 3T3: mouse embryonic fibroblast cell line
[10] = tested on: VERO: African green monkey kidney cell line
[11] = mouse, microsomes

Chain of hERG (Q12809 whole entry): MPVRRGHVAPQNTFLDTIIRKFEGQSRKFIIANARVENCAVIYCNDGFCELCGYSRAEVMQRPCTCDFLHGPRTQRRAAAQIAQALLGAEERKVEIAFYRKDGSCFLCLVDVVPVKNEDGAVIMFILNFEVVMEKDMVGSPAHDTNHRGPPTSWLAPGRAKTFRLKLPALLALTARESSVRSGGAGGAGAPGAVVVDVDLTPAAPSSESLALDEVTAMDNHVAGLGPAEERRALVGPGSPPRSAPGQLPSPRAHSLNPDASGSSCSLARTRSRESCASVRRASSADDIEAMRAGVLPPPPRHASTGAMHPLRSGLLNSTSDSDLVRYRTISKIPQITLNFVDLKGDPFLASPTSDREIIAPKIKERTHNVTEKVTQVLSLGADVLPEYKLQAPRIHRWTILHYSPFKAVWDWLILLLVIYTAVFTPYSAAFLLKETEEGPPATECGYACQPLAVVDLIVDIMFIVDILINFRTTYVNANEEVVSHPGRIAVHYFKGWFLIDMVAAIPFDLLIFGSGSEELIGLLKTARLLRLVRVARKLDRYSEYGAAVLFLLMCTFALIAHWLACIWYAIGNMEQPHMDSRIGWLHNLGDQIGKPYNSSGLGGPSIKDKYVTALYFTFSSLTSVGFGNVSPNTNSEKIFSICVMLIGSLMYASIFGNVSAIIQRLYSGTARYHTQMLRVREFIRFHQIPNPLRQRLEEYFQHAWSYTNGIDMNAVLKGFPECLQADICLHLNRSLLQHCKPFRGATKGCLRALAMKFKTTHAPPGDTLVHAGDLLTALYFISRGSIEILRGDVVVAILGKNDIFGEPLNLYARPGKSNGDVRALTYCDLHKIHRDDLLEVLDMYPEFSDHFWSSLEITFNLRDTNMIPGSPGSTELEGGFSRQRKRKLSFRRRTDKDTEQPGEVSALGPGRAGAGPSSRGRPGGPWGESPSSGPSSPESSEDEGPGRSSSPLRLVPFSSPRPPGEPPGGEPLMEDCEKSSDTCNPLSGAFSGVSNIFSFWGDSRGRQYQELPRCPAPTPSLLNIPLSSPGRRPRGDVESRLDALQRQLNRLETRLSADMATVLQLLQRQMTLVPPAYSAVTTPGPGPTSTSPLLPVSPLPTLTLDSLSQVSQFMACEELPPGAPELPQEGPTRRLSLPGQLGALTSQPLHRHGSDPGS

“5,6,8-Tichloro-2-((2,4-difluorophenyl)amino)-3-isobutyrylquinolin-4(1H)-one [Compound 6y]” showed an IC50 ([1]; read-out: IC50 (MERS-CoV inhibitory activity)) of 0.129 ± 0.026 µM.

With `CC(=O)c1c(NC(C)C)[nH]c2c(C(C)C)cccc2c1=O` [Compound 6a, 3-Aetyl-8-isopropyl-2-(isopropylamino)quinolin-4(1H)-one] the “inhibitory effect on MERS-CoV (in words)” value [1] was “no inhibitory effects”.

With `CC(=O)c1c(NC(C)C)[nH]c2c(C)cc(C)cc2c1=O` [Compound 6b, 3-Aetyl-2-(isopropylamino)-6,8-dimethylquinolin-4(1H)-one] the “inhibitory effect on MERS-CoV (in words)” value [1] was “no inhibitory effects”.

With `CC(C)Nc1[nH]c2c(C(F)(F)F)cc(Cl)cc2c(=O)c1C(=O)c1ccccc1` [Compound 6c, 3-Bnzoyl-6-chloro-2-(isopropylamino)-8-(trifluoromethyl)quinolin-4(1H)-one] the “inhibitory effect on MERS-CoV (in words)” value [1] was “detrimental for inhibitory effect; also recorded: completely abolished activity”.

For `CC(=O)c1c(N2CCCCC2)[nH]c2c(F)cc(F)cc2c1=O` [Compound 6i, 3-Acetyl-6,8-difluoro-2-(piperidin-1-yl)quinolin-4(1H)-one], the “inhibitory effect on MERS-CoV (in words)” value [1] was “no inhibitory effect”.

With `CC(=O)c1c(N2CCOCC2)[nH]c2c(F)cc(F)cc2c1=O` [Compound 6j, 3-Acetyl-6,8-difluoro-2-morpholinoquinolin-4(1H)-one] the “inhibitory effect on MERS-CoV (in words)” value [1] was “no inhibitory effect”.

For `CCCCNc1[nH]c2c(F)cc(F)cc2c(=O)c1C(C)=O` [Compound 6k, 3-Acetyl-2-(butylamino)-6,8-difluoroquinolin-4(1H)-one], the “inhibitory effect on MERS-CoV (in words)” value [1] was “no inhibitory effect”.

In the case of `COc1cccc(Nc2[nH]c3c(F)cc(F)cc3c(=O)c2C(C)=O)c1` [Compound 6p, 3-Acetyl-6,8-difluoro-2-((3-methoxyphenyl)amino)quinolin-4(1H)-one], the “inhibitory effect on MERS-CoV (in words)” value [1] is reported as “no inhibitory effects”.

In the case of `COc1ccc(Nc2[nH]c3c(F)cc(F)cc3c(=O)c2C(C)=O)cc1` [Compound 6q, 3-Acetyl-6,8-difluoro-2-((4-methoxyphenyl)amino)quinolin-4(1H)-one], the “inhibitory effect on MERS-CoV (in words)” value [1] is reported as “no inhibitory effects”.

In the case of `CC(C)C(=O)c1c(Nc2ccc(F)c(F)c2F)[nH]c2c(F)cc(F)cc2c1=O` [Compound 6u, 6,8-Difluoro-3-isobutyryl-2-((2,3,4-trifluorophenyl)amino)quinolin-4(1H)-one], the “metabolic stability (in words)” value [2] is reported as “good metabolic stability”, the “hERG binding affinity (in words)” value [3] is reported as “low hERG binding affinity” and the “cytotoxicity (in words)” value [4] is reported as “no cytotoxicity”. The “cytotoxicity (in words)” value [5] was “no cytotoxicity”, the “cytotoxicity (in words)” value [6] was “no cytotoxicity” and the IC50 [7] was 86.1 µM. The “metabolic stability (in words)” value [8] was “good metabolic stability”, the “cytotoxicity (in words)” value [9] was “no cytotoxicity” and the “cytotoxicity (in words)” value [10] was “no cytotoxicity”. The “metabolic stability (in words)” value [11] was “good metabolic stability”.
